What was measured:
Conditions in all cases: 72 h
Vero E6 [1] = test: drug sensitivity score (DSS) for viability; higher = more toxic; extreme values may be limits of the assay
U2OS [2] = test: as above
HepG2 [3] = test: as above
Calu-3 [4] = test: as above
Caco-2 [5] = test: as above
Vero E6 [6] = test: relative viability EC50 (midpoint between 100% and the lowest measured viability); higher = less toxic
U2OS [7] = test: as above
HepG2 [8] = test: as above
Caco-2 [9] = test: as above
Vero E6 [10] = test: cell viability relative to DMSO; higher = less toxic
U2OS [11] = test: as above
HepG2 [12] = test: as above
Calu-3 [13] = test: as above
Caco-2 [14] = test: as above
Calu-3 [15] = test: relative viability EC50 (midpoint between 100% and the lowest measured viability); higher = less toxic

Structure (SMILES)	drug sensitivity score (Vero E6 [1])	drug sensitivity score (U2OS [2])	drug sensitivity score (HepG2 [3])	drug sensitivity score (Calu-3 [4])	drug sensitivity score (Caco-2 [5])	relative viability EC50 (Vero E6 [6])	relative viability EC50 (U2OS [7])	relative viability EC50 (HepG2 [8])	relative viability EC50 (Caco-2 [9])	cell viability (Vero E6 [10]; 1 nM)	cell viability (Vero E6 [10]; 10 nM)	cell viability (Vero E6 [10]; 100 nM)	cell viability (Vero E6 [10]; 1000 nM)	cell viability (Vero E6 [10]; 10000 nM)	cell viability (U2OS [11]; 1 nM)	cell viability (U2OS [11]; 10 nM)	cell viability (U2OS [11]; 100 nM)	cell viability (U2OS [11]; 1000 nM)	cell viability (U2OS [11]; 10000 nM)	cell viability (HepG2 [12]; 1 nM)	cell viability (HepG2 [12]; 10 nM)	cell viability (HepG2 [12]; 100 nM)	cell viability (HepG2 [12]; 1000 nM)	cell viability (HepG2 [12]; 10000 nM)	cell viability (Calu-3 [13]; 1 nM)	cell viability (Calu-3 [13]; 10 nM)	cell viability (Calu-3 [13]; 100 nM)	cell viability (Calu-3 [13]; 1000 nM)	cell viability (Calu-3 [13]; 10000 nM)	cell viability (Caco-2 [14]; 1 nM)	cell viability (Caco-2 [14]; 10 nM)	cell viability (Caco-2 [14]; 100 nM)	cell viability (Caco-2 [14]; 1000 nM)	cell viability (Caco-2 [14]; 10000 nM)	relative viability EC50 (Calu-3 [15])
Cc1ccc(CCCO)c(NCc2ccc3nc(NCCCN4CCOCC4)n(Cc4nc(C)ccc4O)c3c2)c1	0	0	0	1.9	0	> 10 µM	> 10 µM	> 10 µM	> 10 µM	99.6%	92.7%	97.7%	102%	102%	98.1%	97.1%	97.6%	96.5%	95.1%	89.5%	100%	103%	109%	89.1%	115%	96.4%	104%	93.6%	74.8%	101%	97.7%	97.6%	101%	90%	
Cn1c(-c2ccccc2)nnc1S(C)(=O)=O	0	0	0		0	> 10 µM	> 10 µM	> 10 µM	> 10 µM	89.6%	92.9%	99.3%	94.9%	105%	99.4%	96.9%	96.4%	99.3%	103%	97.4%	99.1%	99.1%	93.9%	94.5%						93%	85.8%	103%	103%	103%	
O=C(Nc1ccc(S(=O)(=O)C(F)(F)F)cc1)C1=CCN(c2ncccc2C(F)(F)F)CC1	0.7	0.2	3.9	0.5	2.2	> 10 µM	> 10 µM	2.67 µM		99.6%	91.7%	91.3%	88.9%	94.7%	96.1%	101%	93.2%	101%	84.9%	107%	87.9%	104%	96.2%	38.6%	96.2%	106%	99.6%	101%	79.9%	97.3%	98.4%	90.7%	97.4%	62.4%	> 10 µM
Nc1nc(Cl)nc2c1ncn2[C@@H]1O[C@H](CO)[C@@H](O)[C@H]1O [2-chloroadenosine]	0	0	0.3	0.1		> 10 µM	> 10 µM	> 10 µM		93.4%	102%	103%	102%	93.7%	101%	96.1%	102%	107%	101%	99.9%	101%	104%	104%	81.8%	110%	103%	98.8%	113%	84.5%						> 10 µM
Cc1ccc([N+](=O)[O-])cc1O [2-methyl-5-nitrophenol]	0	0	0		0	> 10 µM	> 10 µM	> 10 µM	> 10 µM	99.9%	94.4%	94.3%	98.6%	96.2%	108%	96%	101%	96.1%	102%	106%	91%	99.4%	100%	102%						96.9%	105%	101%	94.3%	95.3%	
O=Cc1ccc(CO)o1 [5-HMF]	0	0		0		> 10 µM	> 10 µM			103%	99.9%	99.7%	105%	97.3%	99.6%	99.8%	104%	102%	106%						96.6%	98.2%	97.3%	94.5%	104%						> 10 µM
Nc1c2ccccc2nc2ccccc12 [9-aminoacridine]	6.6	3.6	7.2	1.2	1.1	1.89 µM	3.14 µM	2.14 µM		106%	104%	108%	86.5%	20.3%	94.6%	98%	95%	99.8%	34.9%	93.5%	96.5%	99.8%	88.1%	5.5%	94.4%	92.4%	105%	110%	64.6%	103%	115%	96.2%	134%	60.5%	
O=C(NO)C1(CS(=O)(=O)c2ccc(Oc3ccc(Cl)cc3)cc2)CCOCC1 [CTS-1027]	0	0	0	0	1.2	> 10 µM	> 10 µM	> 10 µM		101%	104%	99.4%	95%	94.5%	99.7%	105%	100%	106%	88.1%	97.7%	88.7%	104%	83.5%	96.3%	95%	101%	93.1%	104%	98.2%	104%	109%	105%	98.8%	74.3%	> 10 µM
O=C(N[C@H](Cc1ccccc1)C(=O)O)c1sc2cc(F)ccc2c1Cl [CU-CPT-4a]	0	0	0		0	> 10 µM	> 10 µM	> 10 µM	> 10 µM	107%	103%	102%	99.1%	104%	97.2%	97.1%	94.4%	98.2%	96.7%	107%	106%	92.7%	90.1%	100%						99.3%	102%	91.1%	93.5%	102%	
CCCCC(=O)NCCc1c(Cc2ccccc2)[nH]c2ccccc12 [DH-97]	0	0	0		0	> 10 µM	> 10 µM	> 10 µM	> 10 µM	102%	98.7%	99.8%	97%	93.8%	100%	94.7%	99.9%	95.1%	96.7%	90.8%	100%	100%	105%	103%						102%	101%	96.8%	92.3%	96%	
O=C1C[C@@H](c2ccc(O)cc2)Oc2cc(O)ccc21 [MF-101]	0	0	0	0	0.4	> 10 µM	> 10 µM	> 10 µM		101%	102%	95.3%	92.1%	99.8%	98.4%	95.4%	96.4%	99.7%	95.9%	95.8%	93.7%	103%	97.6%	90.4%	103%	112%	106%	104%	99.4%	81.1%	99.7%	92.3%	103%	78.1%	> 10 µM
CCc1nc(-c2cccc(C)c2)c(-c2ccnc(NC(=O)c3ccccc3)c2)s1 [TAK-715]	0.8	0.4	1.8	1	4.3	> 10 µM	> 10 µM			93.5%	102%	94.8%	90.6%	82.2%	100%	103%	98.3%	93.6%	85.5%	93%	94.6%	94.6%	94.6%	73.5%	90.5%	101%	91.8%	93.7%	78.2%	97.5%	102%	92%	78.1%	65.6%	> 10 µM
Cc1nnc(-c2ccc3occ(-c4ccc([S+](C)[O-])cc4)c3c2)o1 (stereo not given) [TCS2002]	0	0	0		0	> 10 µM	> 10 µM	> 10 µM	> 10 µM	96.1%	95.9%	99.1%	90.6%	101%	102%	103%	101%	99.3%	98.5%	94%	97.2%	99.3%	93%	112%						103%	96.7%	98.5%	108%	108%	
O=C(O[C@H]1C[N+]2(CCCOc3ccccc3)CCC1CC2)C(O)(c1cccs1)c1cccs1 [aclidinium]	0	0	0		0	> 10 µM	> 10 µM	> 10 µM	> 10 µM	103%	95.5%	101%	96.6%	98.7%	98.4%	95.9%	97.1%	97.2%	99.1%	93.5%	98.9%	91.8%	101%	92.9%						105%	87.8%	99.6%	94.3%	104%	
Nc1nc2c(ncn2COCCO)c(=O)[nH]1 [acyclovir]	0	0	0	0		> 10 µM	> 10 µM	> 10 µM		110%	92.7%	98.3%	98%	101%	91.6%	101%	94.7%	99.7%	104%	96.3%	92%	95.1%	94.7%	96.3%	95.3%	101%	102%	106%	119%						> 10 µM
NC(=O)NC1NC(=O)NC1=O (stereo not given) [allantoin]	0	0	0		0	> 10 µM	> 10 µM	> 10 µM	> 10 µM	108%	98.5%	103%	102%	102%	99%	102%	99.5%	103%	97.8%	114%	107%	104%	99.9%	95.5%						102%	109%	96.3%	100%	93.5%	
